In patent US12319652B2, “Salts and solid forms of (R)-1-(5-methoxy-1H-indol-1-yl)-N,N-dimethylpropan-2-amine” (priority 2021, dated 2025):
Where two headings read alike, the source gives them in different places.

How the values were obtained:
[1] = Dynamic vapor sorption (DVS); type: physicochemical; settings: for DVS isotherm type / hygroscopicity: 0 to 90 to 0% RH; for DVS mass change at 90.0% RH / DVS mass change at 0.0% RH / DVS mass change at 5.0% RH / DVS mass change at 10.0% RH / DVS mass change at 15.0% RH / DVS mass change at 20.0% RH / DVS mass change at 25.0% RH / DVS mass change at 30.0% RH / DVS mass change at 40.0% RH / DVS mass change at 50.0% RH / DVS mass change at 60.0% RH / DVS mass change at 70.0% RH / DVS mass change at 80.0% RH: dm/dt <0.002%
Summary of the method: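 At 25 °C, 20 to 50 mg sample was dried at 0% RH for 60 minutes, then humidity raised 0-30% in 5% steps and 30-90% in 10% steps, with matching desorption back to 0%. Equilibrium set at dm/dt 0.002%/min; amorphous material was run with fixed 1 hour steps.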

[2] = Solubility determinations in SIF buffers (FaSSIF, FeSSIF, FaSSGF); type: physicochemical; settings: 37° C. up to 24 h
Summary of the method: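 Salt forms suspended at 30 mg/ml in FaSSIF, FeSSIF or FaSSGF at 37° C. for 24 h, pH kept in range with 1 M HCl or NaOH. Supernatants sampled at 1, 3, 6 and 24 h, centrifuged and quantified by HPLC as compound 1 free base against amorphous compound 1 calibrants; pellets checked by XRPD for form change.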

[3] = In-situ hydration evaluation of monofumarate Form A; type: physicochemical; settings: ambient
Protocol: An XRPD specimen of monofumarate Form A was prepared and treated with sequential aliquots of water.
An XRPD plate was made up with a small amount of compound 1·Fumarate (batch 1, 5 mg, 1.0 wt) and analysed by XRPD on the 9-minute method and labelled as T=0. After the run, the sample was charged with purified water (10 μL, 2.0 vol) and analysed again by XRPD, labelled as T=9. This was repeated twice more for T=18 and T=27. The sample was left to stand under ambient conditions (15-25° C., ambient humidity, and pressure) in the fume hood for 33 h (FIG. 23).

[4] = type: physicochemical
Protocol: Both samples were maintained at 75% RH at 40° C. and monitored by HPLC at time points t=1 h, 3 h, 24 h, 48 h, 7 d, 2 w, 3 w, 4 w and 5 w.
Under the conditions evaluated during this study, XRPD analysis could not be performed as compound 1 Fumarate turned to an oily residue within 3 h under both conditions.
[…] Both samples were maintained under equilibrium humidity of 75% RH at 40° C. and monitored, initially at hourly and then weekly time points.

[5] = Amorphous forms and thermal study (glass temperature Tg by DSC/TGA); type: physicochemical

In the case of `COc1ccc2c(ccn2C[C@@H](C)N(C)C)c1.O=C(O)/C=C/C(=O)O`, the “RH above which pronounced mono, multilayer sorption and probable deliquescence occurred” value [1] is reported as > 80 % RH, the “DVS isotherm type / hygroscopicity” value ([1]; listed as Form A) is reported as “DVS mass per unit time equlibrated @ dm/dt (0.0002%/min) on Form A was performed (specimen was deliquescent by DVS)” and the “DVS isotherm type / hygroscopicity” value ([1]; listed as compound 1 fumarate crystalline polymorphic Form A) is reported as “deliquescent type isotherm”. The “DVS weight gain at 70% RH” value ([1]; 70% RH (printed 70° RH in Example 8)) was “ca. 1 % w/w”, the “DVS mass change at 90.0% RH” value ([1]; desorption step (second 90.0 entry)) was 9.440% and the “DVS mass change at 0.0% RH” value ([1]; desorption step) was 0.085%. For the same compound, the “DVS mass change at 5.0% RH” value ([1]; desorption step) was 0.113%, the “DVS mass change at 10.0% RH” value ([1]; desorption step) was 0.141% and the “DVS mass change at 15.0% RH” value ([1]; desorption step) was 0.169%. For the same compound, the “DVS mass change at 20.0% RH” value ([1]; desorption step) was 0.201%, the “DVS mass change at 25.0% RH” value ([1]; desorption step) was 0.238% and the “DVS mass change at 30.0% RH” value ([1]; desorption step) was 0.279%. For the same compound, the “DVS mass change at 40.0% RH” value ([1]; desorption step) was 0.374%, the “DVS mass change at 50.0% RH” value ([1]; desorption step) was 0.476% and the “DVS mass change at 60.0% RH” value ([1]; desorption step) was 0.619%. The “DVS mass change at 70.0% RH” value ([1]; desorption step) was 0.885%, the “DVS mass change at 80.0% RH” value ([1]; desorption step) was 2.087% and the “DVS mass change at 0.0% RH” value ([1]; sorption step) was 0.00%. The “DVS mass change at 5.0% RH” value ([1]; sorption step) was 0.021%, the “DVS mass change at 10.0% RH” value ([1]; sorption step) was 0.047% and the “DVS mass change at 15.0% RH” value ([1]; sorption step) was 0.068%. For the same compound, the “DVS mass change at 20.0% RH” value ([1]; sorption step) was 0.088%, the “DVS mass change at 25.0% RH” value ([1]; sorption step) was 0.107% and the “DVS mass change at 30.0% RH” value ([1]; sorption step) was 0.125%. The “DVS mass change at 40.0% RH” value ([1]; sorption step) was 0.173%, the “DVS mass change at 50.0% RH” value ([1]; sorption step) was 0.242% and the “DVS mass change at 60.0% RH” value ([1]; sorption step) was 0.366%. The “DVS mass change at 70.0% RH” value ([1]; sorption step) was 0.590%, the “DVS mass change at 80.0% RH” value ([1]; sorption step) was 0.174% and the “DVS mass change at 90.0% RH” value ([1]; sorption step) was 9.440%. The “Solubility in FaSSGF” value [2] was “Solubility in SIF buffers: Soluble in FaSSIF, FeSSIF and FaSSGF at 37°”, the “Solubility in FaSSIF” value [2] was “Solubility in SIF buffers: Soluble in FaSSIF, FeSSIF and FaSSGF at 37°” and the “Solubility in FeSSIF” value [2] was “Solubility in SIF buffers: Soluble in FaSSIF, FeSSIF and FaSSGF at 37°”. The “Form change on treatment with sequential aliquots of water (XRPD)” value [3] was “conversion into its amorphous form”.

With `COc1ccc2c(ccn2C[C@@H](C)N(C)C)c1.O=C(O)/C=C/C(=O)O` [amorphous compound 1 fumarate] the “HPLC (% area)” value ([4]; input batch 1 before storage at 75% RH/40° C.) was 93.84 % area, the “HPLC (% area)” value ([4]; open-necked wide vial, 75% RH/40° C., t = 2 w) was 91.24 % area and the “HPLC (% area)” value ([4]; open-necked wide vial, 75% RH/40° C., t = 3 w) was 94.17 % area. For the same compound, the “HPLC (% area)” value ([4]; open-necked wide vial, 75% RH/40° C., t = 4 w) was 91.86 % area, the “HPLC (% area)” value ([4]; open-necked wide vial, 75% RH/40° C., t = 5 w) was 91.57 % area and the “HPLC (% area)” value ([4]; sealed PK0056 electrostatic bags, 75% RH/40° C., t = 2 w) was 91.21 % area. For the same compound, the “HPLC (% area)” value ([4]; sealed PK0056 electrostatic bags, 75% RH/40° C., t = 3 w) was 91.94 % area, the “HPLC (% area)” value ([4]; sealed PK0056 electrostatic bags, 75% RH/40° C., t = 4 w) was 90.9 % area and the “HPLC (% area)” value ([4]; sealed PK0056 electrostatic bags, 75% RH/40° C., t = 5 w) was 91.3 % area. The “DSC measurements, Endset” value ([5]; DSC thermal event Tg) was 34.30 °C, the “DSC measurements, Integral” value ([5]; DSC thermal event Tg) was −1.73 Jg^−1 and the “DSC measurements, Onset” value ([5]; DSC thermal event Tg) was 21.14 °C. The “DSC measurements, Peak” value ([5]; DSC thermal event Tg) was 29.67 °C and the “Form Assignment” value ([5]; heated up past the melt event on a hot stage microscope) was “Amorphous”.
